Data reported in patent US20060057696A1, “Sugar chain synthases” (priority 2002, published 2006).

What was measured:
[1] = target: T1, PA-mST8Sia VI (mouse ST8Sia VI) (Mus musculus, UniProt Q8K4T1); assay: Sialyltransferase activity of PA-mST8Sia VI toward acceptor substrates; format: biochemical; settings: for Relative rate (%) Mouse ST8SiaVI: incorporation with Fetuin taken as 100, substrate 0.5 mg/ml glycolipids, 1 mg/ml glycoproteins, monosaccharides and oligosaccharides
T1 construct: amino acids 26-398 in the case of mouse ST8Sia VI; signal peptide of mouse immunoglobulin IgM (N); made in house; host or cells: COS-7 cells, transient expression of pcDSA-mST8Sia VI; protein recovered from medium on IgG-Sepharose
T1 sequence (Q8K4T1 26-398): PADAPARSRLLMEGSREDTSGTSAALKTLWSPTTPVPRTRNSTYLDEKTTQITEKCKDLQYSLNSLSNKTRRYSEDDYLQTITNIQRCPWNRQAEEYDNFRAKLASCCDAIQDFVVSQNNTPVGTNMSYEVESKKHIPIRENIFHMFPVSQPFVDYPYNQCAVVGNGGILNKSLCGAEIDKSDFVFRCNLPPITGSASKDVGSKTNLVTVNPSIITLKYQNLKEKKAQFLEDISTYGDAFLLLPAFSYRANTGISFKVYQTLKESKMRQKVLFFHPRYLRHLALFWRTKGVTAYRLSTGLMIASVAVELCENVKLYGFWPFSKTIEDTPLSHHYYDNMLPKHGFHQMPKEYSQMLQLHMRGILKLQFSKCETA
Protocol: (§1) Using each expression vector and lipofectamine (Invitrogen), transient expression was carried out in COS-7 cells (Kojima, N. et al. (1995) FEBS Lett. 360, 1-4). The proteins of the present invention secreted from the cells into which each expression vector had been introduced were named as PA-mST8Sia VI (mouse) and PA-hST8Sia VI (human). PA-mST8Sia VI and PA-hST8Sia VI were adsorbed to IgG-Sepharose (Amersham Pharmacia Biotech), and were then recovered from medium. Sialyltransferase activity was measured as follows according to the method of Lee et al. (Lee, Y.-C. et al. (1999) J. Biol. Chem. 274, 11958-11967). A reaction solution (10 μl) containing 50 mM MES buffer (pH 6.0), 1 mM MgCl2, 1 mM CaCl2, 0.5% Triton CF-54, 100 μM CMP-[^14C]-NeuAc, a glycoconjugate (which was added at 0.5 mg/ml in the case of glycolipids, and at 1 mg/ml in the case of glycoproteins or oligosaccharides), and a PA-mST8Sia VI or PA-hST8Sia VI suspension, was incubated at 37° C. for 3 to 20 hours. Thereafter, in the case of glycolipids, the reaction product was purified with a C-18 column (Sep-Pak Vac 100 mg; Waters) and the purified product was used as a sample, and in the case of oligosaccharides or glycoproteins, the reaction product was directly used as a sample. Thus, the obtained samples were subjected to analysis. In the case of oligosaccharides or glycolipids, the sample was spotted on a silica gel 60 HPTLC plate (Merck), and was then developed with a developing solvent consisting of ethanol:pyridine:n-butanol:water:acetic acid=100:10:10:30:3 (for oligosaccharides), a developing solvent consisting of 1-propanol:ammonia water:water=6:1:2.5 (for oligosaccharides), or a developing solvent consisting of chloroform:methanol: 0.02% CaCl2=55:45:10 (for glycolipids). In the case of glycoproteins, analysis was carried out by SDS-polyacrylamide gel electrophoresis. The obtained radioactivities were visualized with a BAS2000 radio image analyzer (Fuji Film) and then quantified.

[2] = target: T2, PA-hST8Sia VI (human ST8Sia VI) (Homo sapiens, UniProt P61647, L267F); assay: Sialyltransferase activity of PA-hST8Sia VI toward acceptor substrates; format: biochemical; settings: incorporation with Fetuin taken as 100, substrate 0.5 mg/ml glycolipids, 1 mg/ml glycoproteins, monosaccharides and oligosaccharides
T2 construct: amino acids 68-398 in the case of human ST8Sia VI; signal peptide of mouse immunoglobulin IgM (N); made in house; host or cells: COS-7 cells, transient expression of pcDSA-hST8Sia VI; protein recovered from medium on IgG-Sepharose
T2 sequence (P61647 68-398 L267F): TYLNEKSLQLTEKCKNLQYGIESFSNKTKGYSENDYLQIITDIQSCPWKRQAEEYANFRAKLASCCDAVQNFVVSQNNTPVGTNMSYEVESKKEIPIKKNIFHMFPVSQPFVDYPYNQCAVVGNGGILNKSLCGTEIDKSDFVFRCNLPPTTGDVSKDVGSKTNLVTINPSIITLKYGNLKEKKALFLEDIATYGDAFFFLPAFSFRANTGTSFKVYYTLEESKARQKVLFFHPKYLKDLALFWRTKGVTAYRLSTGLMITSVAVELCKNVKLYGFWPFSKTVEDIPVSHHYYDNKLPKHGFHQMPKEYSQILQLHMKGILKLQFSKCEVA
Protocol: as §1

Molecule | Relative rate (%) Mouse ST8SiaVI [1] | Relative rate (%) Human ST8Sia VI [2] | activity of PA-mST8Sia VI on the substrate (in words) [1]
CC(=O)N[C@H]1[C@H]([C@H](O)[C@H](O)CO)O[C@@](O[C@H]2[C@@H](O)[C@@H](CO)O[C@@H](O[C@H]3[C@H](O)[C@@H](O)C(O)O[C@@H]3CO)[C@@H]2O)(C(=O)O)C[C@@H]1O (some centres unmarked) [3′-Sialyllactose, NeuAcα2,3Galβ1,4Glc] | 629% | 69.9% | –
CC(=O)NC1C(O)CC(OCC2OC(OC3C(CO)OC(O)C(O)C3O)C(O)C(O)C2O)(C(=O)O)OC1C(O)C(O)CO (centres unmarked) [6′-Sialyllactose, NeuAcα2,6Galβ1,4Glc] | 91.5% | 10.7% | –
NeuAcα2,3Galβ1,3GalNAcβ1,4(NeuAca2,3)Galβ1,4Glcβ1-Cer [GD1a] | 6.0% | 1.8% | showed activity
NeuAcα2,8Galβ1,3GalNAcβ1,4(NeuAcα2,8NeuAcα2,3)Galβ1,4Glcβ1-Cer [GT1b] | 1.1% | 2.2% | showed activity
NeuAcα2,8NeuAcα2,3Galβ1,4Glcβ1-Cer [GD3] | 0% | 0% | –
NeuAcα2,8NeuAcα2,8Galβ1,3GalNAcβ1,4(NeuAcα2,8NeuAcα2,3)Galβ1,4Glcβ1-Cer [GQ1b] | 0% | 0% | –
